# Test results as given in patent publication EP0977560B1 (PAZ Arzneimittel- Entwicklungsgesellschaft mbH, priority 1997, dated 1998).
# Assays:
# [1] = tested on: Transkriptionsfaktors NF-κB; experiment: Electro mobility shift assay (DIG Gel Shift Kit) of NF-κB activation in TPA-stimulated Jurkat cells; assay type: cell-based; conditions: Phorbolester (TPA) stimulated Jurkat-Zellen; two-hour preincubation; 100, 10 and 1 ptm (Spur 3-5); Abbildung 1
# From the text: Einfluß von R-Ibuprofen-CoA-Thioester auf die Aktivierung des Transkriptionsfaktors NF-κB in Jurkat-Zellen. […] Spur 1 zeigt die unstimulierten, Spur 2 die stimulierten Kontrollzellen.
# [2] = tested on: PGHS-2 (Cyclooxygenase-2); experiment: Formation of PGHS-2 in LPS-induced monocytes (method after Brideau et al., human whole blood assay); assay type: cell-based; conditions: LPS-induced Monozyten, 24 Std.; R-Ibuprofenoyl-CoA 0.5, 0.25, 0.05 mM; Ibuprofen, razemisch 1.0, 0.1, 0.05 mM; Abbildung 2
# From the text: Inkubation von LPS-induzierten Monozyten (24 Std.). […] Methode nach: BRIDEAU, C., KARGMAN, S., LIU, S., DALLOB, A.L., EHRICH, E.W., RODGER, I.W. & CHAN, C.C. […] A human whole blood assay for clinical evaluation of biochemical efficacy of cyclooxygenase inhibitors. Inflamm. Res., 45, 68-74.
smiles,measurement,setting,value
CC(C)Cc1ccc([C@@H](C)C(=O)SCCNC(=O)CCNC(=O)[C@H](O)C(C)(C)COP(=O)(O)OP(=O)(O)OC[C@H]2O[C@@H](n3cnc4c(N)ncnc43)[C@H](O)[C@@H]2OP(=O)(O)O)cc1 [R-Ibuprofen-CoA-Thioester],Aktivierung des Transkriptionsfaktors NF-κB,[1],Aktivierungshemmung von NF-κB
same,Bildung von PGHS-2 (Cyclooxygenase-2),[2],dosisabhängig zu einer Unterdrückung der Bildung von PGHS-2
